Consider 19 sequences from patent US20070128217A1 (priority 2003, published 2007).

The test system of experiment [1] is control sera (pooled serum of ten healthy LUMC hospital workers; commercial negative donor pooled serum from the Dutch bloodbank). Format: binding, human. Details: Binding of Control serum LUMC to linear peptides / Binding of Control serum Blood-bank to linear peptides / Binding of Control serum LUMC to looped peptides / Binding of Control Serum Blood-Bank to Looped peptides / Binding of Control serum LUMC to linear peptides of the protein M of SARS-CoV Urbani / Binding of Control serum Blood-bank to linear peptides of the protein M of SARS-CoV Urbani / Binding of Control serum LUMC to looped peptides of the protein M of SARS-CoV Urbani / Binding of Control Serum Blood-Bank to Looped peptides of the protein M of SARS-CoV Urbani: unit not given here.

In experiment [2] the test system is rabbit serum obtained by immunizing a rabbit with the SARS-CoV strain Frankfurt 1. The format is binding. The arrangement: Binding of a rabbit serum to linear peptides / Binding of a rabbit serum to looped peptides / Rabbit serum linear peptides / Rabbit serum looped peptides / Binding of a rabbit serum to linear peptides of protein N of SARS-CoV Urbani (Rabbit serum linear peptides) / Binding of a rabbit serum to looped/cyclic peptides of protein N of SARS-CoV Urbani (Rabbit serum looped peptides): unit not given here.

Turning to CWHTHNYDYCIPYNS, in experiment [1], the “Binding of Control Serum Blood-Bank to Looped peptides” value stood at 0.6, the “Binding of Control serum Blood-bank to linear peptides” value is listed as 0.6, the “Binding of Control serum LUMC to linear peptides” value came to 0.7 and the “Binding of Control serum LUMC to looped peptides” value is reported as 0.6. Further, in experiment [2], the “Binding of a rabbit serum to linear peptides” value stood at 0.1 and the “Binding of a rabbit serum to looped peptides” value is on record as 0.7.

For DGSSGVANPAMDPIY, in experiment [1], the “Binding of Control Serum Blood-Bank to Looped peptides” value is given as 0.5, the “Binding of Control serum Blood-bank to linear peptides” value turned out to be 0.9, the “Binding of Control serum LUMC to linear peptides” value is recorded as 0.8 and the “Binding of Control serum LUMC to looped peptides” value is 0.4. Further, in experiment [2], the “Binding of a rabbit serum to linear peptides” value is listed as 0.1 and the “Binding of a rabbit serum to looped peptides” value came to 0.6.

Take DYQIGGYSEDRHSGV: in experiment [1], the “Binding of Control Serum Blood-Bank to Looped peptides” value amounted to 0.5, the “Binding of Control serum Blood-bank to linear peptides” value is 0.6, the “Binding of Control serum LUMC to linear peptides” value is on record as 0.5 and the “Binding of Control serum LUMC to looped peptides” value was determined as 0.7. For the same sequence, in experiment [2], the “Binding of a rabbit serum to linear peptides” value is recorded as 0.1 and the “Binding of a rabbit serum to looped peptides” value was found to be 0.5.

As for EDRHSGVKDYVVVHG, in experiment [1], the “Binding of Control Serum Blood-Bank to Looped peptides” value worked out at 1.1, the “Binding of Control serum Blood-bank to linear peptides” value was 0.9, the “Binding of Control serum LUMC to linear peptides” value is 0.9 and the “Binding of Control serum LUMC to looped peptides” value was determined as 0.7. Further, in experiment [2], the “Binding of a rabbit serum to linear peptides” value was found to be 0.1 and the “Binding of a rabbit serum to looped peptides” value is listed as 0.3.

Regarding EDYQIGGYSEDRHSG, in experiment [1], the “Binding of Control Serum Blood-Bank to Looped peptides” value came out at 0.4, the “Binding of Control serum Blood-bank to linear peptides” value is recorded as 0.4, the “Binding of Control serum LUMC to linear peptides” value was 0.4 and the “Binding of Control serum LUMC to looped peptides” value was determined as 0.5. Further, in experiment [2], the “Binding of a rabbit serum to linear peptides” value turned out to be 0.1 and the “Binding of a rabbit serum to looped peptides” value came to 0.6.

For FFTLGSITAQPVKID, in experiment [1], the “Binding of Control Serum Blood-Bank to Looped peptides” value is 0.2, the “Binding of Control serum Blood-bank to linear peptides” value is 0.5, the “Binding of Control serum LUMC to linear peptides” value is reported as 0.5 and the “Binding of Control serum LUMC to looped peptides” value is 0.3. Besides, in experiment [2], the “Binding of a rabbit serum to linear peptides” value stood at 1.1 and the “Binding of a rabbit serum to looped peptides” value is reported as 0.0.

Take FHPLADNKFALTCTS: in experiment [1], the “Binding of Control Serum Blood-Bank to Looped peptides” value stood at 0.8, the “Binding of Control serum Blood-bank to linear peptides” value was determined as 0.8, the “Binding of Control serum LUMC to linear peptides” value came to 0.8 and the “Binding of Control serum LUMC to looped peptides” value worked out at 0.8. Further, in experiment [2], the “Rabbit serum linear peptides” value is 0.4 and the “Rabbit serum looped peptides” value turned out to be 0.2.

FNKLVKDPPNVQIHT: in experiment [1], the “Binding of Control Serum Blood-Bank to Looped peptides” value is recorded as 0.8, the “Binding of Control serum Blood-bank to linear peptides” value came to 0.8, the “Binding of Control serum LUMC to linear peptides” value is 0.9 and the “Binding of Control serum LUMC to looped peptides” value stood at 0.7. In experiment [2], the “Binding of a rabbit serum to linear peptides” value is listed as 0.1 and the “Binding of a rabbit serum to looped peptides” value turned out to be 0.7.

As for GDGISTPKLKEDYQI, in experiment [1], the “Binding of Control Serum Blood-Bank to Looped peptides” value is listed as 0.4, the “Binding of Control serum Blood-bank to linear peptides” value was 0.6, the “Binding of Control serum LUMC to linear peptides” value is given as 0.5 and the “Binding of Control serum LUMC to looped peptides” value was 0.4. For the same sequence, in experiment [2], the “Binding of a rabbit serum to linear peptides” value is recorded as 0.1 and the “Binding of a rabbit serum to looped peptides” value was 0.5.

Regarding GGIAIAMACIVGLMW, in experiment [1], the “Binding of Control Serum Blood-Bank to Looped peptides of the protein M of SARS-CoV Urbani” value worked out at 0.8, the “Binding of Control serum Blood-bank to linear peptides of the protein M of SARS-CoV Urbani” value is recorded as 0.8, the “Binding of Control serum LUMC to linear peptides of the protein M of SARS-CoV Urbani” value turned out to be 0.8 and the “Binding of Control serum LUMC to looped peptides of the protein M of SARS-CoV Urbani” value was determined as 0.9. Moreover, in experiment [2], the “Rabbit serum linear peptides” value is given as 0.2 and the “Rabbit serum looped peptides” value was 0.3.

With GRCDIKDLPKEITVA, in experiment [1], the “Binding of Control Serum Blood-Bank to Looped peptides of the protein M of SARS-CoV Urbani” value is listed as 1.0, the “Binding of Control serum Blood-bank to linear peptides of the protein M of SARS-CoV Urbani” value came to 0.5, the “Binding of Control serum LUMC to linear peptides of the protein M of SARS-CoV Urbani” value amounted to 0.1 and the “Binding of Control serum LUMC to looped peptides of the protein M of SARS-CoV Urbani” value was found to be 0.9. Further, in experiment [2], the “Rabbit serum linear peptides” value was found to be 0.0 and the “Rabbit serum looped peptides” value amounted to 0.1.

Regarding GVANPAMDPIYDEPT, in experiment [1], the “Binding of Control Serum Blood-Bank to Looped peptides” value is on record as 0.5, the “Binding of Control serum Blood-bank to linear peptides” value was determined as 0.4, the “Binding of Control serum LUMC to linear peptides” value was 0.3 and the “Binding of Control serum LUMC to looped peptides” value is 0.6. Moreover, in experiment [2], the “Binding of a rabbit serum to linear peptides” value was 0.1 and the “Binding of a rabbit serum to looped peptides” value is 0.6.

For the sequence GYSEDRHSGVKDYVV, in experiment [1], the “Binding of Control Serum Blood-Bank to Looped peptides” value came to 0.6, the “Binding of Control serum Blood-bank to linear peptides” value was found to be 0.8, the “Binding of Control serum LUMC to linear peptides” value is on record as 0.8 and the “Binding of Control serum LUMC to looped peptides” value turned out to be 0.6. Besides, in experiment [2], the “Binding of a rabbit serum to linear peptides” value was 0.1 and the “Binding of a rabbit serum to looped peptides” value is recorded as 0.3.

On to HPLGRCDIKDLPKEI, for which, in experiment [1], the “Binding of Control Serum Blood-Bank to Looped peptides of the protein M of SARS-CoV Urbani” value stood at 1.0, the “Binding of Control serum Blood-bank to linear peptides of the protein M of SARS-CoV Urbani” value was found to be 1.0, the “Binding of Control serum LUMC to linear peptides of the protein M of SARS-CoV Urbani” value was 0.7 and the “Binding of Control serum LUMC to looped peptides of the protein M of SARS-CoV Urbani” value came to 0.7. In experiment [2], the “Rabbit serum linear peptides” value amounted to 0.2 and the “Rabbit serum looped peptides” value was determined as 1.1.

Turning to HQNSKKTTKLVVILR, in experiment [1], the “Binding of Control Serum Blood-Bank to Looped peptides” value is 0.6, the “Binding of Control serum Blood-bank to linear peptides” value is reported as 0.5, the “Binding of Control serum LUMC to linear peptides” value is on record as 0.8 and the “Binding of Control serum LUMC to looped peptides” value stood at 0.6. For the same sequence, the “Recognition of the peptide by the rabbit serum” value in experiment [2] is “recognized”.

For the sequence HQTAAFRDVLVVLNK, in experiment [1], the “Binding of Control Serum Blood-Bank to Looped peptides” value was 0.8, the “Binding of Control serum Blood-bank to linear peptides” value turned out to be 0.5, the “Binding of Control serum LUMC to linear peptides” value stood at 0.9 and the “Binding of Control serum LUMC to looped peptides” value is reported as 0.6. In addition, in experiment [2], the “Rabbit serum linear peptides” value turned out to be 0.4 and the “Rabbit serum looped peptides” value stood at 0.8.

Take HTHNYDYCIPYNSVT: in experiment [1], the “Binding of Control Serum Blood-Bank to Looped peptides” value was 0.6, the “Binding of Control serum Blood-bank to linear peptides” value is listed as 0.6, the “Binding of Control serum LUMC to linear peptides” value stood at 0.7 and the “Binding of Control serum LUMC to looped peptides” value was found to be 0.6. Besides, in experiment [2], the “Binding of a rabbit serum to linear peptides” value is 0.1 and the “Binding of a rabbit serum to looped peptides” value was 0.6.

For the sequence HYQECVRGTTVLLKE, in experiment [1], the “Binding of Control Serum Blood-Bank to Looped peptides” value was found to be 0.9, the “Binding of Control serum Blood-bank to linear peptides” value amounted to 0.8, the “Binding of Control serum LUMC to linear peptides” value was found to be 0.7 and the “Binding of Control serum LUMC to looped peptides” value worked out at 1.0. In experiment [2], the “Rabbit serum linear peptides” value came to 0.5 and the “Rabbit serum looped peptides” value was 0.5.

Turning to IAIAMACIVGLMWLS, in experiment [1], the “Binding of Control Serum Blood-Bank to Looped peptides of the protein M of SARS-CoV Urbani” value amounted to 0.8, the “Binding of Control serum Blood-bank to linear peptides of the protein M of SARS-CoV Urbani” value amounted to 0.5, the “Binding of Control serum LUMC to linear peptides of the protein M of SARS-CoV Urbani” value was determined as 0.6 and the “Binding of Control serum LUMC to looped peptides of the protein M of SARS-CoV Urbani” value amounted to 0.7. Besides, in experiment [2], the “Rabbit serum linear peptides” value stood at 0.1 and the “Rabbit serum looped peptides” value is listed as 0.3.
